Molecules are shown by their SMILES. “Also recorded” adds a separate entry of the source.

The source of these data is patent US9629822B2, “Flavonoid based antiviral targets” (UNIVERSITY OF CENTRAL FLORIDA RESEARCH FOUNDATION, INC., priority 2012, dated 2017).

Data set [1] deals with CHO cells. Briefly: CHO cell toxicity, MTS assay, 48 h. Conditions: Cricetulus griseus, CHO, 37° C., MTS reagent, read-out: CHO 48 h IC50 value. The class given is cell-based, Chinese hamster. The protocol:
In each case, the chalcone system 8 was more toxic than the corresponding ring-closed system, 9.
The CHO assay was conducted to assess the general toxicity of each flavonoid drug. Briefly, cell growth was assayed in sterile 96-well microtiter plates (Costar 3599, Corning, N.Y., USA) in the presence of each drug. Experiments were conducted in triplicate. CHO cells were plated at 10,000 cells/mL. Drug solutions were prepared in 100% DMSO and dosed so that the final DMSO concentration was <1%. For example, 1 μL of drug solution was added to the CHO cells plated in each well in 100 μL of media. Drug additions occurred after an initial overnight incubation of CHO cells in each well. After drug was added, the cells were incubated in 5% CO2 for 48 h at 37° C. The MTS reagent (Promega Cell Titer 96 Aqueous non-radioactive cell proliferation reagent) was added (20 μL) and the CHO cells were incubated for an additional 4h and then absorbance at 490 nm was measured on a BioTek Synergy MX plate reader. […] IC50 values were determined from the corresponding plot of relative absorbance at 490 nm vs drug concentration.

Data set [2] has as its target T1, US28 receptor (Human cytomegalovirus, UniProt P69332).
T1 construct: expressed in transfected cells; host or cells: HEK 293T cells, transiently transfected
Briefly: PathDetect trans Elk1 luciferase reporter gene assay in US28-transfected 293T HEK cells. The data set is classed as cell-based, Human Cytomegalovirus (HCMV). As to conditions: for type of activity on the US28 receptor (agonist / inverse agonist / none), in words: Elk1 reporter, US28-transfected HEK cells; for Efficacy(%): maximum intrinsic activity from dose-response curve; for Efficacy(%) / Emax: negative = inverse agonism; for EC50: 293T HEK cells transiently expressing US28, Elk1 reporter; for Emax: read-out: Efficacy(%), maximum intrinsic activity from dose-response curve. An excerpt: Having generated a homologous series of chalcones and flavones, their ability to interact with the US28 receptor in human embryonic kidney (HEK) cells was investigated using an Elk-1 gene reporter assay (FIG. 2). HEK cells were transfected with either an empty vector (i.e., mock cells) or with a vector carrying US 28. These matched HEK cells provided a means to evaluate off-target effects as well as innate drug toxicity. As many of the flavonoid drugs were not water-soluble, all drug stock solutions were made in 100% dimethylsulfoxide (DMSO). The final DMSO concentration for each cell-based experiment, however, was 1% DMSO. To account for the presence of DMSO, 1% DMSO controls were run in parallel. […] values of the homologous series were also determined in Chinese hamster ovary (CHO) cells in order to assess the relative toxicities of each member of the series in a different cell line (see Table 1).
Interaction with the US28 receptor was measured by a decrease in luminescence using a firefly (Photinus pyralis) luciferase-based PathDetect Elk1 gene reporter assay (FIG. 2).^23,24 This assay assessed the modulation of US28-mediated activation of mitogen-activated protein kinase (MAPK) signaling pathways (results are shown in Table 1). […] Such compounds which reduce MAPK signaling will have direct utility in the treatment of proliferative disorders including but not limited cancer.
After transfection the US28 is expressed and activates MAPK. The MAPK phosphorylates the activator domain of the GAL4dbd/Elk1 fusion protein, and causes its dimerization. The dimer then binds to the GAL4 UAS region of the reporter gene and allows for luciferase transcription. The luciferase mRNA is then translated and the luciferase protein is detected via luminescence by the use of the Bright-Glo reagent.
(§1) The efficacy of each compound on the US28 receptor was investigated in luciferase based reporter gene assay PathDetect trans Elk1 (Agilent, Stratagene)^23 as described previously.^13 Briefly, the human embryonic kidney (HEK) 293T cells were transiently-transfected with 0.1 μg Elk1, 5 μg Luc, and 5 μg of US28 vector or empty pcDNA3 vector (mock cells). Five hours after transfection, the cells were washed with DMEM containing 1% FBS, harvested, seeded in a white half-area 96-well plate (20,000 cells/well) and incubated with the indicated concentrations of test compounds. The incubation buffer consisted of DMEM, 1% FBS, 2 mM L-glutamine, 1% penicillin-streptomycin and 1% DMSO. The cells were incubated at 37° C. in the humid atmosphere with 5% CO2 for an additional 20-24 hours. The luciferase substrate BrightGlo (Promega) was used according to the manufacturer's instruction. The luminescence intensity was acquired using microplate reader Victor3V (Perkin-Elmer). The basal luminescence of mock transfected cells was approximately 500 RLU and the basal luminescence of US28-transfected cells was 4-5-fold higher (2000-2500 RLU). As the inhibitors gave differential responses in terms of their ability to reduce US 28 mediated signaling, their relative EC50 values were determined by dosing the US-28 transfected HEK cells with increasing concentrations of each compound. In this case, the EC50 value is the concentration of the compound needed to provoke a response halfway between the compound's maximal response (change in luminescence) and the no-compound control in the same US-28 transfected cell line. A plot of relative luminescence versus log of the compound concentration provided a dose-response curve from which the % efficacy was derived via non-linear regression methods using the algorithms in PRISM 5.0 (GraphPad Software, San Diego, Calif.).

The subject of data set [3] is mock transfected 293T HEK cells. The data set can be described thus: PathDetect Elk1 luminescence in mock transfected (empty pcDNA3 vector) 293T HEK cells, off-target effect. The data set is classed as cell-based, human. Conditions: 10 μM vs 1% DMSO control, Equation 1; for activation at 10 µM: Homo sapiens, read-out: Effect(%) on mock cells with each drug at 10 μM. The protocol:
As a control, the empty pcDNA3 plasmid vector and the components of PathDetect system were also used for mock transfection of 293T HEK cells. Controls containing 1% DMSO were run in parallel. The relative luminescence results found with mock transfected 293T HEK cells treated with 10 μM drug and the untreated 1% DMSO control were compared via the following Equation 1. % Effect on mock cells=(100%×(mock cell luminescence/DMSO control luminescence))−100% Equation (1)
This equation was derived in order to assess the net effect each compound had on non-US28 containing HEK cells transfected via the same protocol. These control experiments were critical as they provided a method to address off target effects such as compound toxicity, which could give rise to false positives in the PathDetect assay.
Compounds, which had no off-target effects, gave nearly identical luminescence values in both the mock cells and the 1% DMSO control (i.e., a mock cell luminescence/DMSO control luminescence ratio of 1) and a net effect of 0% via Equation 1 (e.g., 9j: 0% in Table 1). In contrast, compounds that were stimulatory to the treated HEK cells gave higher mock cell luminescence than the DMSO control, a ratio >1, and a net positive value in Equation 1 for the % effect on mock cells (e.g., 8f: 290%). On the other hand, compounds that were intrinsically toxic gave lower luminescence in the treated mock cells than the DMSO control, a ratio below 1, and a net negative value for the % effect on mock cells (e.g., 8d: ˜42%).
as §1

For data set [4], the system named is HIV-1 BaL. Briefly: Anti-HIV assay (luciferase, HIV-1 BaL infection). The data set is classed as cell-based. Conditions: 10 μM, Experiment 1B, 2 ng/mL p24 HIV-1 BaL; for inhibition at 10 µM: Human immunodeficiency virus 1, BAL. How it is done:
Assays were performed below in accordance with the procedures set forth in The Journal of Immunology, 2006, 176, pp. 6900-905; AIDS Research and Human Retroviruses, 2004, 20:11, pp. 1157-1665.^32,33 Cells were treated with 2 ng/mL p24 of HIV-1 BaL administered; MOI approx 0.02 (see refs 32, 33). Cells were treated with 2 ng/mL p24 of HIV-1 BaL administered; MOI approx 0.02 (see refs 32, 33).

The nature of data set [5]: TZMbI assay for cell safety (cell viability and growth, CytoTox Glo). Conditions: human, TZMbI cells, 10 μM, Experiment 1A; read-out: % decrease in viability compared to 0.1% DMSO vehicle based on viable cell luminescence. How it is done:
Assays were performed below in accordance with the procedures set forth in The Journal of Immunology, 2006, 176, pp. 6900-905; AIDS Research and Human Retroviruses, 2004, 20:11, pp. 1157-1665.^32,33 TZMbI assays for cell safety were performed to identify potential anti-viral compounds. TZMbI assays for cell safety were performed to identify potential anti-viral compounds per the methods.

[6] abbreviates: EC50 (μM), NE = no effect when tested at 10 μM of compound.

T1 sequence (P69332 whole entry): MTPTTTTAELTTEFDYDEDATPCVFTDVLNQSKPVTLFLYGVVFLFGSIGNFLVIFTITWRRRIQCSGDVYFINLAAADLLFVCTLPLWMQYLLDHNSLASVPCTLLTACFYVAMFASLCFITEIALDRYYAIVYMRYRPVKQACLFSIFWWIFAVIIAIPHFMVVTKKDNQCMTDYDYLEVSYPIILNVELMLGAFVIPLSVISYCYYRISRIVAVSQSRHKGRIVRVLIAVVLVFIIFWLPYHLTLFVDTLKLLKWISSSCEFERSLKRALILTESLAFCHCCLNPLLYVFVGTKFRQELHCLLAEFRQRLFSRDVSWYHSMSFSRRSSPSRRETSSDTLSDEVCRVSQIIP

In the case of `COc1ccccc1/C=C/C(=O)c1ccccc1O` [Compound 8a, (E)-1-(2-Hydroxyphenyl)-3-(2-methoxyphenyl)prop-2-en-1-one], the IC50 in data set [1] was found to be 25.5 ± 2.7 µM. For the same compound, in data set [2], the “type of activity on the US28 receptor (agonist / inverse agonist / none), in words” value was “agonism; also recorded: agonist activity”; the “Efficacy(%)” value amounted to 67%; the Emax was 67%. Besides, the midpoint of the response in data set [2] (pEC50 ± SEM), the EC50, lay at 1.45 µM. Besides, the activation at 10 µM in data set [3] was found to be 8%. In addition, in data set [4], the “RLU (relative luciferase units)” value is on record as 1218.5 RLU and the inhibition at 10 µM is -28.8%. Further, the cytotoxicity at 10 μM in data set [5] came to 18.7%.
In turn, `COc1cc(Br)cc(/C=C/C(=O)c2ccccc2O)c1OC` [Compound 8d, (E)-3-(5-bromo-2,3-dimethoxyphenyl)-1-(2-hydroxyphenyl)prop-2-en-1-one] yielded a melting point of 122 to 124 °C. Further, in data set [1], the IC50 came to 7.2 ± 0.4 µM. Also, the EC50 in data set [2] (setting [6]) amounted to 6.7 µM. In addition, in data set [2], the “Efficacy(%)” value is given as around 52% and the Emax is around 52%. This compound also gave an EC50 in data set [2] (pEC50 ± SEM) of 6.61 µM. Also, in data set [4], the “RLU (relative luciferase units)” value worked out at 134.6 RLU and the inhibition at 10 µM is 85.8%. Besides, in data set [5], the cytotoxicity at 10 μM came out at 72.9%.
Take `COc1ccc(Br)cc1-c1cc(=O)c2ccccc2o1` [Compound 11d, 2-(5-Bromo-2-methoxyphenyl)-4H-chromen-4-one]: the melting point lay in the range of 161 to 164 °C. Further, the IC50 in data set [1] was above 100 µM. In data set [2] (setting [6]), the EC50 amounted to 8.1 µM. Moreover, in data set [2], the “type of activity on the US28 receptor (agonist / inverse agonist / none), in words” value is “inverse agonism”; the “Efficacy(%)” value is recorded as −55%; the Emax was -55%. In data set [4], the “RLU (relative luciferase units)” value turned out to be 576.3 RLU and the inhibition at 10 µM turned out to be 38.4%. Moreover, the cytotoxicity at 10 μM in data set [5] came out at 23.6%.
Consider `CCOc1ccc(Br)cc1/C=C/C(=O)c1ccccc1O` [Compound 8c, (E)-3-(5-bromo-2-ethoxyphenyl)-1-(2-hydroxyphenyl)prop-2-en-1-one], for which, in data set [1], the IC50 was found to be 7.2 ± 0.5 µM. A half-maximal effect in data set [2] (setting [6]) (EC50) was put at 5 µM. The Emax in data set [2] was around 88%. Besides, in data set [3], the activation at 10 µM is -3%. Further, in data set [4], the “RLU (relative luciferase units)” value came to 112.3 RLU and the inhibition at 10 µM stood at 88.1%. For the same compound, in data set [5], the cytotoxicity at 10 μM was 53.3%.
Regarding `COc1ccc(Br)cc1C1CC(=O)c2ccccc2O1` (stereo not drawn) [Compound 13b, 2-(5-Bromo-2-methoxyphenyl)chroman-4-one], the IC50 in data set [1] was found to be 67.9 ± 9.3 µM. For the same compound, the EC50 in data set [2] (NE = no effect when tested at 10 μM of compound) is above 10 µM. For the same compound, in data set [2] (setting [6]), the EC50 was above 10 µM. Also, the “type of activity on the US28 receptor (agonist / inverse agonist / none), in words” value in data set [2] is listed as “did not have any significant effect”. Moreover, the activation at 10 µM in data set [3] was -5%. In data set [4], the “RLU (relative luciferase units)” value is on record as 884.5 RLU and the inhibition at 10 µM is 2.8%. Moreover, the cytotoxicity at 10 μM in data set [5] was -9.1%.
Consider `COc1ccc(Br)cc1/C=C/C(=O)c1c(O)cccc1OC` [Compound 8f, (E)-3-(5-bromo-2-methoxyphenyl)-1-(2-hydroxy-6-methoxyphenyl)prop-2-en-1-one], for which the IC50 in data set [1] turned out to be 6.1 ± 0.8 µM. The EC50 in data set [2] (setting [6]) is 6 µM. In addition, in data set [2], the “Efficacy(%)” value is reported as around 95% and the Emax was around 95%. Further, in data set [3], the “Effect(%) on mock cells with each drug at 10 μM” value is given as 290% and the activation at 10 µM is 290%. Further, in data set [4], the “RLU (relative luciferase units)” value turned out to be 45.9 RLU and the inhibition at 10 µM was found to be 95.1%. Besides, in data set [5], the cytotoxicity at 10 μM stood at 91.3%.
